Laboratory results as given in patent publication US20040024024A1, “Aromatic sulfone hydroxamates and their use as protease inhibitors” (priority 2001, published 2004).
Several values for one entry are separate records, joined by “and”; a condition that tells them apart may be missing. Equal entries are not always repeated. Structures can show the parent of a compound that is named as a salt.

Tests used:
Experiment in all cases: In vitro MMP inhibition, Ki determination (fluorogenic substrate II)
Format in all cases: biochemical
[1] = biological target: T1, Human recombinant MMP-14 (Homo sapiens, UniProt P50281)
T1 construct: The catalytic domain enzyme was expressed in E. coli inclusion bodies, solubilized in urea; made in house
Procedure: (§1) Several hydroxamates and salts thereof were analyzed in in vitro assays to determine their ability to inhibit the MMP cleavage of peptide substrates. Inhibition (Ki) and IC50 constants were calculated from the assayed hydroxamate-MMP interactions.
(§2) Human recombinant MMP-1, MMP-2, MMP-9, MMP-13, and MMP-14 were used in this assay. All enzymes were prepared in Assignee's laboratories following usual laboratory procedures. Protocols for the preparation and use of these enzymes are available in the scientific literature. See, e.g., Enzyme Nomenclature (Academic Press, San Diego, Calif., 1992) (and the citations therein). See also, Frije et al., J. Biol. Chem., 26(24), 16766-73 (1994).
The MMP-14 full length cDNA was provided by Dr. Gregory Goldberg of Washington University (St. Louis, Mo.). The catalytic domain enzyme was expressed in E. coli inclusion bodies, solubilized in urea, purified on a preparative […] reverse phase HPLC column, and then refolded in the presence of zinc acetate and purified for use.
(§3) All MMPs were activated using 4-aminophenylmercuric acetate (“APMA”, Sigma Chemical, St. Louis, Mo.) or trypsin. MMP-9 also was activated using human recombinant MMP-3 (purified in Assignee's laboratory following standard cloning and purification techniques).
(§4) Two fluorogenic, methoxycoumarin-containing polypeptide substrates were used in the MMP inhibition assays:
(§5) MCA-ArgProLeuGlyLeuDpaAlaArgGluArgNH2 (II)
(§6) Here, “Dpa” is 3-(2,4-dinitrophenyl)-L-2,3-diaminopropionyl group, and “MCA” is 7-methoxycoumarin-4-yl acetyl. Substrate (I) was purchased from Baychem (Redwood City, Calif.), and substrate II was prepared Assignee's laboratory. Substrate I was used in the IC50 determination assays, while substrate II was used in the Ki determination assays. In the absence of MMP inhibitory activity, either substrate is cleaved at the Gly-Leu peptide bond. This cleavage separates the highly fluorogenic peptide from the 2,4-dinitrophenyl quencher, thus resulting in increase of fluorescent intensity.
(§7) The stock solutions of the assayed hydroxamates (or salts thereof) were prepared in 1% dimethyl sulfoxide (DMSO). These stock solutions were diluted in Buffer A (100 mM Tris-HCl, 100 mM NaCl, 10 mM CaCl2, 0.05% polyoxyethylene 23 lauryl ether, pH 7.5) to obtain solutions with different hydroxamate concentrations, i.e., assay solutions with different concentrations of the assayed MMP inhibitory compound. The experiment controls contained the same amount of Buffer A/DMSO as the assayed sample, but contained no hydroxamate (or salt thereof).
(§8) The assays from which the Ki determinations were made were performed as follows. The assayed hydroxamate samples were incubated in separate wells of untreated white polystyrene plates (Nunc Nalgene International, Rochester, N.Y.), and analyzed on a Tecan SpectraFlour Plus plate reader. The excitation wavelength was 330 nm, and the emission wavelength—420 nm. All samples (assayed hydroxamates and controls) were incubated in separate plate wells at room temperature for 1 hr in the presence of 4 μM of MMP substrate (II). In the absence of MMP inhibitory activity, substrate II was cleaved at the Gly-Leu bond resulting in an increase of relative fluorescence. Inhibition was observed as a reduced rate of this increase in relative fluorescence. The various hydroxamates were analyzed using a single low enzyme concentration with a single substrate concentration fixed at or below the Km. This protocol is a modification of method by Knight et al., FEBS Lett., 296(3), 263-266 (1992). Apparent inhibitory constants were determined by non-linear regression of reaction velocity as a function of inhibitor and enzyme concentration using Morrison's equation, as described by Kuzmic, Anal. Biochem. 286, 45-50 (2000). Modifications were made in the non-linear regression method to allow a common control reaction rate and effective enzyme concentration to be shared between all dose-response relationships on a given assay plate. […]

[2] = biological target: T2, Human recombinant MMP-13 (Homo sapiens, UniProt P45452)
T2 construct: made in house; host or cells: baculovirus / insect cells
Procedure: as §1, §2
The expressed proenzyme was first purified over a heparin agarose column, and then over a chelating zinc chloride column. The proenzyme was then activated by APMA for use in the assay. Further details on baculovirus expression systems may be found in, for example, Luckow et al., J. Virol., 67, 4566-79 (1993). See also, O'Reilly et al, Baculovirus Expression Vectors: A Laboratory Manual (W. H. Freeman and Co., New York, N.Y., 1992). See also, King et al., The Baculovirus Expression System: A Laboratory Guide (Chapman & Hall, London, England, 1992).
as §3, §4, §5, §6, §7
as §8, with “(2000).” for “(2000). Modifications were made in the non-linear regression method to allow a common control reaction rate and effective enzyme concentration to be shared between all dose-response relationships on a given assay plate.”

[3] = biological target: T3, Human recombinant MMP-1 (Homo sapiens, UniProt P03956)
T3 construct: made in house; host or cells: MMP-1-transfected HT-1080 cells (spent media)
T3 sequence (P03956 100-469): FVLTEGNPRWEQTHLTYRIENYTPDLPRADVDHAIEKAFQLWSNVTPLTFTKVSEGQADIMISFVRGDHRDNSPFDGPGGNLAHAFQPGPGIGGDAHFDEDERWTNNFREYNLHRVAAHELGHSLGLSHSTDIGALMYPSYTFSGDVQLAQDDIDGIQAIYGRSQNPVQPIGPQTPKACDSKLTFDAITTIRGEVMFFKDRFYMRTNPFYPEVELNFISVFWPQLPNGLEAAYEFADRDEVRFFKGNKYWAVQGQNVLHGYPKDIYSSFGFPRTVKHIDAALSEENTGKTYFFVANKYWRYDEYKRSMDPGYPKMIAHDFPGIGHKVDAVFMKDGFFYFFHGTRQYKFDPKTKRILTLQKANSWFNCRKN
Procedure: as §1, §2
The MMP-1 proenzyme was purified from the spent media of MMP-1-transfected HT-1080 cells provided by Dr. Harold Welgus of Washington University (St. Louis, Mo.). The protein was purified on a zinc chelating column.
as §3, §4, §5, §6, §7, §8

[4] = substrate (II) 4 μM, 1 hr room temperature, apparent Ki, values in parenthesis

| Structure (SMILES) | Ki [1, 4] | Ki [2, 4] | Ki [3, 4] | further results |
| --- | --- | --- | --- | --- |
| O=C(NO)C1(S(=O)(=O)c2ccc(OCCCc3nc(-c4ccc(OC(F)(F)F)cc4)no3)cc2)CCOCC1 [Example 31, tetrahydro-N-hydroxy-4-[[4-[3-[3[4-(trifluoromethoxy)phenyl]-1,2,4-oxadiazol-5-yl]propoxy]phenyl]sulfonyl]-2H-pyran-4-carboxamide] | > 10 µM | 0.0015 µM | > 10 µM |  |
| O=C(NO)C1(S(=O)(=O)c2ccc(OCCCc3cccc(-c4ccc(F)cc4)c3)cc2)CCOCC1 [Example 39] | > 10 µM | 0.00304 µM | > 10 µM |  |
| O=C(NO)C1(S(=O)(=O)c2ccc(OCCc3cccc(-c4ccccn4)c3)cc2)CCOCC1 [Example 40] | > 10 µM | 0.00058 µM | > 10 µM |  |
| CCN1CCC(C(=O)NO)(S(=O)(=O)c2ccc(OCCCc3nc(-c4ccc(OC(F)(F)F)cc4)no3)cc2)CC1 [Example 41, 1-ethyl-N-hydroxy 4-{[4-(3-{3-[4-(trifluoromethoxy)phenyl]-1,2,4-oxadiazol-5-yl}propoxy)phenyl]sulfonyl}piperidine-4-carboxamide Hydrochloride] | > 10 µM | 0.00106 µM | > 10 µM |  |
| COCCN1CCC(C(=O)NO)(S(=O)(=O)c2ccc(OCCCc3nc(-c4ccc(OC(F)(F)F)cc4)no3)cc2)CC1 [Example 42] | > 10 µM | 0.000486 µM | > 10 µM |  |
| CCN1CCC(C(=O)NO)(S(=O)(=O)c2ccc(OCCCc3cccc(-c4ccccc4)c3)cc2)CC1 [Example 46] | > 10 µM | 0.00229 µM | > 10 µM |  |
| COCCN1CCC(C(=O)NO)(S(=O)(=O)c2ccc(OCCCc3cc(-c4ccc(F)cc4F)cs3)cc2)CC1 [Example 47, 4-[(4-{3-[4-(2,4-difluorophenyl)thien-2-l]propoxy}phenyl)sulfonyl]-N-hydroxy-1-(2-methoxyethyl)piperidine-4-carboxamide Hydrochloride] | 3.32 µM and 5.29 µM | 0.000304 µM and 0.000423 µM | > 10 µM |  |
| COCCN1CCC(C(=O)NO)(S(=O)(=O)c2ccc(OCCCn3nnc(-c4ccc(OC(F)(F)F)cc4)n3)cc2)CC1 [Example 48] |  | 0.000127 µM |  |  |
| O=C(NO)C1(S(=O)(=O)c2ccc(OCCCn3nnc(-c4ccc(OC(F)(F)F)cc4)n3)cc2)CCN(C2CC2)CC1 [Example 49] | > 10 µM | 0.000439 µM | > 10 µM |  |
| O=C(NO)C1(S(=O)(=O)c2ccc(OCCCc3nc(-c4ccc(OC(F)(F)F)cc4)no3)cc2)CCN(C2CC2)CC1 [Example 51, 1-cyclopropyl-N-hydroxy-4-{[4-(3-{3-[4-(trifluoromethoxy)phenyl]-1,2,4-oxadiazol-5-yl}propoxy)phenyl]sulfonyl}piperidine-4-carboxamide Hydrochloride] | 0.688 µM | 0.0017 µM | 5.16 µM |  |
| NC(=O)c1cccc(OCCOc2ccc(S(=O)(=O)C3(C(=O)NO)CCOCC3)cc2)c1 [Example 54] | 4.12 µM |  | > 10 µM |  |
| CC(C)C(=O)c1cccc(CCCOc2ccc(S(=O)(=O)C3(C(=O)NO)CCOCC3)cc2)c1 [Example 95] |  |  |  | Ki ([1]; value in parenthesis): 5.41 µM; Ki ([3]; value in parenthesis): > 10 µM |
| CC(C)c1ccc(-c2cccc(CCCOc3ccc(S(=O)(=O)C4(C(=O)NO)CCOCC4)cc3)c2)cc1 [Example 160] |  |  |  | Ki ([1]; value in parenthesis): > 10 µM; Ki ([3]; value in parenthesis): > 10 µM |
| O=C(NO)C1(S(=O)(=O)c2ccc(OCCCc3cccc(-c4cccc(F)c4)c3)cc2)CCOCC1 [Example 161] |  |  |  | Ki ([2]; value in parenthesis): 0.0203 µM; Ki ([3]; value in parenthesis): > 10 µM |
| O=C(NO)C1(S(=O)(=O)c2ccc(OCCCc3cncc(Br)c3)cc2)CCOCC1 [Example 522] |  |  |  | Ki ([1]; value in parentheses): 6.29 µM; Ki ([3]; value in parentheses): > 10 µM |
| O=C(NO)C1(S(=O)(=O)c2ccc(OCCCc3cncc(-c4ccccc4)c3)cc2)CCOCC1 [Example 524] |  |  |  | Ki ([1]; value in parentheses): > 10 µM; Ki ([2]; value in parentheses): 0.000244 µM |
| O=C(NO)C1(S(=O)(=O)c2ccc(OCCCc3cccc(-c4cccs4)c3)cc2)CCOCC1 [Example 595] |  |  |  | Ki ([1]; value in parentheses): > 10 µM; Ki ([2]; value in parentheses): 0.00725 µM |
| O=C(NCCOc1ccc(S(=O)(=O)C2(C(=O)NO)CCOCC2)cc1)c1cc2ccccc2[nH]1 [Example 599] |  |  |  | Ki ([2]; value in parentheses): 0.00024 µM; Ki ([3]; value in parentheses): > 10 µM |
